Reference: ChEMBL document CHEMBL6092189, “Synthesis of kanamycin-azole hybrids and investigation of their antifungal activities” (Bioorg Med Chem, 2024)
Values after ≈ are worked out from the molar mass of the structure shown. Active and inactive are the calls of the source. The rule behind the calls is not given here.

Assays:
[1] = Cytotoxicity against human HeLa cells assessed as reduction in cell viability incubated for 24 hrs by MTT assay; type: toxicity, cell-based
[2] = test system: Cryptococcus neoformans; assay: Antifungal activity against Cryptococcus neoformans H99 assessed as inhibition of fungal growth incubated for 48 hrs by two-fold dilution method; type: functional
[3] = test system: Diutina rugosa; assay: Antifungal activity against Candida rugosa 95-967 assessed as inhibition of fungal growth incubated for 48 hrs by two-fold dilution assay; type: functional
[4] = test system: Candida parapsilosis; assay: Antifungal activity against azole-resistant Candida parapsilosis Cas08-0490 assessed as inhibition of fungal growth incubated for 48 hrs by two-fold dilution method; type: functional; settings: Lodderomyces parapsilosis
[5] = test system: Staphylococcus aureus; assay: Antibacterial activity against Staphylococcus aureus ATCC 25923 assessed as inhibition of bacterial growth incubated for 18 hrs by two-fold dilution method; type: functional
[6] = test system: Cryptococcus neoformans; assay: Antifungal activity against Cryptococcus neoformans VR-54 assessed as inhibition of fungal growth incubated for 48 hrs by two-fold dilution assay; type: functional
[7] = test system: Candida tropicalis; assay: Antifungal activity against Candida tropicalis 95-41 assessed as inhibition of fungal growth incubated for 48 hrs by two-fold dilution assay; type: functional
[8] = test system: Escherichia coli; assay: Antibacterial activity against Escherichia coli ATCC 25922 assessed as inhibition of bacterial growth incubated for 18 hrs by two-fold dilution method; type: functional
[9] = test system: Candida albicans; assay: Antifungal activity against Candida albicans MYA2876 assessed as inhibition of fungal growth incubated for 48 hrs by two-fold dilution method; type: functional
[10] = test system: Candida albicans; assay: Antifungal activity against azole-resistant Candida albicans 64124 assessed as inhibition of fungal growth incubated for 48 hrs by two-fold dilution method; type: functional
[11] = test system: Cell membrane; assay: Induction of membrane permeabilization in azole-resistant Candida parapsilosis Cas08-0490 assessed as pore formation by measuring fluorescence intensity at 256 ug/ml measured after 25 mins by SYTOX Green dye based fluorescence analysis; type: subcellular; settings: dose 256.0 µg/ml
[12] = test system: Cell membrane; assay: Induction of membrane permeabilization in Candida rugosa 95-967 assessed as pore formation by measuring fluorescence intensity at 256 ug/ml measured after 25 mins by SYTOX Green dye based fluorescence analysis; type: subcellular; settings: Diutina rugosa, dose 256.0 µg/ml
[13] = test system: Cell membrane; assay: Induction of membrane permeabilization in Candida albicans MYA2876 assessed as pore formation by measuring increase in fluorescence intensity at 1/4X MIC measured after 5 mins by SYTOX Green dye based fluorescence analysis
[14] = test system: Cell membrane; assay: Induction of membrane permeabilization in Candida albicans 64124 assessed as pore formation by measuring increase in fluorescence intensity at 1/4X MIC measured after 5 mins by SYTOX Green dye based fluorescence analysis
[15] = test system: Candida albicans; assay: Antifungal activity against azole-resistant Candida albicans 64124 assessed as fractional inhibitory concentration index incubated for 48 hrs in presence of kanamycin by microdilution checkerboard assay; type: functional
[16] = test system: Cryptococcus neoformans; assay: Antifungal activity against Cryptococcus neoformans VR-54 assessed as fractional inhibitory concentration index incubated for 48 hrs in presence of kanamycin by microdilution checkerboard assay; type: functional
[17] = test system: Diutina rugosa; assay: Antifungal activity against Candida rugosa 95-967 assessed as fractional inhibitory concentration index incubated for 48 hrs in presence of kanamycin by microdilution checkerboard assay; type: functional
[18] = test system: Candida albicans; assay: Antifungal activity against Candida albicans MYA2876 assessed as fractional inhibitory concentration index incubated for 48 hrs in presence of kanamycin by microdilution checkerboard assay; type: functional
[19] = test system: Cryptococcus neoformans; assay: Antifungal activity against Cryptococcus neoformans H99 assessed as fractional inhibitory concentration index incubated for 48 hrs in presence of kanamycin by microdilution checkerboard assay; type: functional
[20] = test system: Candida tropicalis; assay: Antifungal activity against Candida tropicalis 95-41 assessed as fractional inhibitory concentration index incubated for 48 hrs in presence of kanamycin by microdilution checkerboard assay; type: functional
[21] = test system: Candida parapsilosis; assay: Antifungal activity against azole-resistant Candida parapsilosis Cas08-0490 assessed as fractional inhibitory concentration index incubated for 48 hrs in presence of kanamycin by microdilution checkerboard assay; type: functional

| SMILES | IC50 at 24 h [1] | MIC [2] | MIC [3] | MIC [4] | MIC [5] | MIC [6] | MIC [7] | MIC [8] | MIC [9] | MIC [10] | also measured |
| --- | --- | --- | --- | --- | --- | --- | --- | --- | --- | --- | --- |
| Cl.Cl.Cl.Cl.NC[C@H]1O[C@H](O[C@H]2[C@H](O)[C@@H](O[C@H]3O[C@H](Cn4cc(COC(Cn5ccnc5)c5ccc(F)cc5F)nn4)[C@@H](O)[C@H](N)[C@H]3O)[C@H](N)C[C@@H]2N)[C@H](O)[C@@H](O)[C@@H]1O (stereo partly drawn) | > 100 µg/mL | 64 µg/mL | ≥ 256 µg/mL | ≥ 256 µg/mL | 64 µg/mL | 128 µg/mL | 8 µg/mL | 64 µg/mL | 128 µg/mL | 128 µg/mL | – |
| Cl.Cl.Cl.Cl.NC[C@H]1O[C@H](O[C@H]2[C@H](O)[C@@H](O[C@H]3O[C@H](Cn4cc(CNC(=O)c5ccc(Cl)cc5)nn4)[C@@H](O)[C@H](N)[C@H]3O)[C@H](N)C[C@@H]2N)[C@H](O)[C@@H](O)[C@@H]1O | > 100 µg/mL | 128 µg/mL | ≥ 256 µg/mL | ≥ 256 µg/mL | 64 µg/mL | ≥ 256 µg/mL | ≥ 256 µg/mL | 128 µg/mL | ≥ 256 µg/mL | ≥ 256 µg/mL | – |
| Cl.Cl.Cl.Cl.NC[C@H]1O[C@H](O[C@H]2[C@H](O)[C@@H](O[C@H]3O[C@H](Cn4cc(CNC(=O)c5ccccc5Cl)nn4)[C@@H](O)[C@H](N)[C@H]3O)[C@H](N)C[C@@H]2N)[C@H](O)[C@@H](O)[C@@H]1O | > 100 µg/mL | 64 µg/mL | ≥ 256 µg/mL | ≥ 256 µg/mL | ≥ 256 µg/mL | ≥ 256 µg/mL | ≥ 256 µg/mL | 128 µg/mL | ≥ 256 µg/mL | ≥ 256 µg/mL | – |
| Cl.Cl.Cl.Cl.NC[C@H]1O[C@H](O[C@H]2[C@H](O)[C@@H](O[C@H]3O[C@H](Cn4cc(COC(Cn5cncn5)c5ccc(Cl)cc5Cl)nn4)[C@@H](O)[C@H](N)[C@H]3O)[C@H](N)C[C@@H]2N)[C@H](O)[C@@H](O)[C@@H]1O (stereo partly drawn) | > 100 µg/mL | 16 µg/mL | ≥ 256 µg/mL | ≥ 256 µg/mL | 128 µg/mL | 32 µg/mL | 32 µg/mL | ≥ 256 µg/mL | 16 µg/mL | 16 µg/mL | Activity [11]: inactive; Activity [12]: inactive; Activity [13]: Active; Activity [14]: Active |
| OC(Cn1cncn1)c1ccc(Cl)cc1Cl (stereo not drawn) | – | 64 µg/mL (≈ 248 µM) | 64 µg/mL (≈ 248 µM) | 64 µg/mL (≈ 248 µM) | – | 32 µg/mL (≈ 124 µM) | 32 µg/mL (≈ 124 µM) | – | 64 µg/mL (≈ 248 µM) | 128 µg/mL (≈ 496 µM) | fractional inhibitory concentration index (FICI) [15]: 1; fractional inhibitory concentration index (FICI) [16]: 1; fractional inhibitory concentration index (FICI) [17]: 2.25; fractional inhibitory concentration index (FICI) [18]: 1; fractional inhibitory concentration index (FICI) [19]: 1; fractional inhibitory concentration index (FICI) [20]: 1.5; fractional inhibitory concentration index (FICI) [21]: 2 |
| Cl.Cl.Cl.Cl.NC[C@H]1O[C@H](O[C@H]2[C@H](O)[C@@H](O[C@H]3O[C@H](Cn4cc(CNC(=O)c5ccc(Cl)cc5Cl)nn4)[C@@H](O)[C@H](N)[C@H]3O)[C@H](N)C[C@@H]2N)[C@H](O)[C@@H](O)[C@@H]1O | > 100 µg/mL | ≥ 256 µg/mL | ≥ 256 µg/mL | ≥ 256 µg/mL | 128 µg/mL | ≥ 256 µg/mL | ≥ 256 µg/mL | 128 µg/mL | ≥ 256 µg/mL | ≥ 256 µg/mL | – |
| NC[C@H]1O[C@H](O[C@H]2[C@H](O)[C@@H](O[C@H]3O[C@H](CO)[C@@H](O)[C@H](N)[C@H]3O)[C@H](N)C[C@@H]2N)[C@H](O)[C@@H](O)[C@@H]1O [KANAMYCIN] | – | 128 µg/mL (≈ 264 µM) | ≥ 256 µg/mL | ≥ 256 µg/mL | 1 µg/mL (≈ 2.06 µM) | ≥ 256 µg/mL | ≥ 256 µg/mL | 4 µg/mL (≈ 8.26 µM) | ≥ 256 µg/mL | ≥ 256 µg/mL | – |
| OC(Cn1cncn1)(Cn1cncn1)c1ccc(F)cc1F [FLUCONAZOLE] | – | 1 µg/mL (≈ 3.27 µM) | 8 µg/mL (≈ 26.1 µM) | 16 µg/mL (≈ 52.2 µM) | – | 1 µg/mL (≈ 3.27 µM) | 2 µg/mL (≈ 6.53 µM) | – | 128 µg/mL (≈ 418 µM) | ≥ 256 µg/mL | – |
| Cl.Cl.Cl.Cl.NC[C@H]1O[C@H](O[C@H]2[C@H](O)[C@@H](O[C@H]3O[C@H](Cn4cc(COC(Cn5ccnc5)c5ccc(Cl)cc5Cl)nn4)[C@@H](O)[C@H](N)[C@H]3O)[C@H](N)C[C@@H]2N)[C@H](O)[C@@H](O)[C@@H]1O (stereo partly drawn) | > 100 µg/mL | 64 µg/mL | ≥ 256 µg/mL | ≥ 256 µg/mL | 128 µg/mL | 64 µg/mL | 64 µg/mL | ≥ 256 µg/mL | 128 µg/mL | 32 µg/mL | Activity [11]: inactive; Activity [12]: inactive; Activity [13]: Active; Activity [14]: Active |
| Cl.Cl.Cl.Cl.NC[C@H]1O[C@H](O[C@H]2[C@H](O)[C@@H](O[C@H]3O[C@H](Cn4cc(COC(Cn5cncn5)c5ccc(F)cc5F)nn4)[C@@H](O)[C@H](N)[C@H]3O)[C@H](N)C[C@@H]2N)[C@H](O)[C@@H](O)[C@@H]1O (stereo partly drawn) | > 100 µg/mL | ≥ 256 µg/mL | ≥ 256 µg/mL | ≥ 256 µg/mL | ≥ 256 µg/mL | ≥ 256 µg/mL | ≥ 256 µg/mL | ≥ 256 µg/mL | ≥ 256 µg/mL | ≥ 256 µg/mL | – |
